Results on 2 molecules are retold here after PubChem BioAssay (NCI).

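In this assay, cells in 96-well plates receive the compound at five concentrations for 48 hours. Endpoints are linearly interpolated between the surrounding concentrations. GI50 = concentration required for 50% inhibition of growth. TGI is the concentration that stops growth completely.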

Usually GI50 stands for the concentration at which growth is held to half of that of the control. In general, TGI refers to the concentration giving total growth inhibition. Read a low TGI as greater sensitivity of the cells.

Among the test systems are MALME-3M melanoma; UACC-257 melanoma; HOP-62 NSCLC; HT29 colon; SK-MEL-2 melanoma; HS 578T breast; DU-145 prostate; A549 NSCLC; HCT-15 colon; A498 renal.
Assay in all cases: DTP human tumour cell line panel, 48 h

For `COc1cccc(CNc2ncnc3c2ncn3C2OC(CO)C(O)C2O)c1O` (stereo not given), the GI50 with MALME-3M melanoma is 0.259 µM; with UACC-257 melanoma, 1.91 µM; with HOP-62 NSCLC it was 0.387 µM; with HT29 colon it was 0.9 µM; in the assay with SK-MEL-2 melanoma, 0.656 µM; in the assay on HS 578T breast, 0.108 µM. Further, the GI50 in the assay on DU-145 prostate was 0.0733 µM; in the assay on A549 NSCLC, 1.05 µM; with HCT-15 colon, 0.138 µM; with A498 renal it was 0.205 µM. The TGI with MALME-3M melanoma is 4.38 µM; with UACC-257 melanoma, more than 100 µM; in the assay on HOP-62 NSCLC, more than 100 µM; in the assay with HT29 colon, more than 100 µM; with SK-MEL-2 melanoma, more than 100 µM; in the assay on HS 578T breast, 0.577 µM. Moreover, the TGI is 1.22 µM with DU-145 prostate, more than 100 µM in the assay on A549 NSCLC, more than 100 µM with HCT-15 colon and 2.21 µM in the assay with A498 renal.

As for `COc1ccc(C2=NC(=O)NC2c2ccc(OC)cc2)cc1` (stereo not given), the GI50 in the assay with MALME-3M melanoma is 4.91 µM; with UACC-257 melanoma it was 36.3 µM; in the assay with HOP-62 NSCLC, 15.2 µM; with HT29 colon it was 3.78 µM; in the assay with SK-MEL-2 melanoma it was 5.34 µM; with HS 578T breast, 7.18 µM. The GI50 in the assay with DU-145 prostate was 23 µM; in the assay with A549 NSCLC, 11.8 µM; in the assay on HCT-15 colon, 4.78 µM; in the assay on A498 renal, 4.49 µM. Moreover, the TGI in the assay with MALME-3M melanoma is 68.3 µM; in the assay with UACC-257 melanoma, more than 100 µM; in the assay with HOP-62 NSCLC, more than 100 µM; with HT29 colon, 27.9 µM; with SK-MEL-2 melanoma it was 52.8 µM; with HS 578T breast, 48.5 µM. Also, the TGI in the assay on DU-145 prostate is more than 100 µM; with A549 NSCLC it was more than 100 µM; in the assay on HCT-15 colon, more than 100 µM; with A498 renal it was 29.1 µM.
